Data on 26 compounds can be found in patent US10308615B2, “Heterocyclic compounds as inhibitors of Vanin-1 enzyme” (Pfizer Inc., priority 2015, dated 2019).

Usually IC50 stands for the concentration at which inhibition is half-maximal.

Test [1] has as its target T1, human vanin-1 (Homo sapiens (Human), UniProt O95497). Briefly: Human Vanin-1 Enzyme Assay 1. The settings on record: 25 pM human vanin-1, 50 uM pantetheine 7-amino-4-trifluoromethylcoumarin, 30 min preincubation, 60 min. It counts as biochemical. The procedure: Human Vanin-1 Enzyme Assay 1.
(§1) The in vitro assay measures enzymatic cleavage of the fluorescently-labeled vanin substrate, pantetheine 7-amino-4-trifluoromethylcoumarin, by human vanin-1.
(§2) The vanin-1 protein was prepared in-house from a construct expressing the extracellular domain of human vanin-1 (GenBank ID NM_004666) preceded N-terminally by the honey bee melittin signal peptide, a GSG linker sequence, a His6X tag and a FLAG tag. The secreted, soluble enzyme was purified from the conditioned medium from a CHO cell line stably expressing the resulting protein. Enzyme purification was performed through sequential Ni NTA and size-exclusion chromatography steps.
The test inhibitors were solubilized in DMSO to a stock concentration of 30 mM. On the day of the assay, dose response plates were prepared by diluting the inhibitors in DMSO at compound concentration 200-fold the final in-assay concentration. Intermediate concentrations were prepared by diluting in DMSO in a four-fold series for a total of 11 data points.
To prepare a working solution of human vanin-1, the enzyme was diluted to 33.3 pM in the assay buffer consisting of 50 mM Tris-HCl pH=8.0, 50 mM KCl, 0.005% Brij-35 and […] cysteamine. To begin the assay 100 nL was transferred from the compound plate to the assay plate. Next, 15 μL of the vanin-1 working solution were transferred to the assay plate. The inhibitor and enzyme were incubated at room temperature for 30 minutes. The enzyme reaction was then initiated by the addition of 5 μL of 200 μM pantetheine 7-amino-4-trifluoromethylcoumarin prepared in assay buffer. The final concentrations in the assay were 25 pM human vanin-1 and 50 uM substrate. The final concentration of DMSO was 0.5%. The assay plates were incubated for 60 minutes and before they were read on a Perkin Elmer EnVision Model 2103 using a 405 nm excitation wavelength and a 510 nm emission wavelength for detection.

Test [2] deals with T1, human vanin-1. Briefly: Human Vanin-1 Enzyme Assay 3. It counts as biochemical. The settings on record: 2 nM human vanin-1, 10 uM substrate, 15 min. The procedure:
Human Vanin-1 Enzyme Assay 3.
as §1, §2
On the day of the assay, dose response plates were prepared by diluting the inhibitors in DMSO at compound concentration 100-fold the final in-assay concentration. Concentration series were prepared by serially diluting in DMSO in a two-fold series for a total of 11 data points. Intermediate compound plates containing compound in 10% DMSO were then created by diluting the compounds 10-fold in assay buffer consisting of 50 mM Tris-HCl pH=8.0, 50 mM KCl, 0.005% Brij-35 and 1.5 mM cysteamine. To begin the assay 3 μL were transferred from the intermediate compound plate to the assay plate.
A working solution of human vanin-1 was prepared by diluting the enzyme stock to 2.5 nM in assay buffer. Next, 24 μL of the vanin-1 working solution were transferred to the assay plate. The enzyme reaction was then initiated by the addition of 3 μL of 100 μM pantetheine 7-amino-4-trifluoromethylcoumarin prepared in 5 uM acetic acid. The final concentrations in the assay were 2 nM human vanin-1 and 10 uM substrate. The final concentration of DMSO was 1%. The assay plates were incubated at room temperature for 15 minutes and before they were read on a Tecan Safire using a 405 nm excitation wavelength and a 505 nm emission wavelength for detection.

T1 sequence (O95497 22-491): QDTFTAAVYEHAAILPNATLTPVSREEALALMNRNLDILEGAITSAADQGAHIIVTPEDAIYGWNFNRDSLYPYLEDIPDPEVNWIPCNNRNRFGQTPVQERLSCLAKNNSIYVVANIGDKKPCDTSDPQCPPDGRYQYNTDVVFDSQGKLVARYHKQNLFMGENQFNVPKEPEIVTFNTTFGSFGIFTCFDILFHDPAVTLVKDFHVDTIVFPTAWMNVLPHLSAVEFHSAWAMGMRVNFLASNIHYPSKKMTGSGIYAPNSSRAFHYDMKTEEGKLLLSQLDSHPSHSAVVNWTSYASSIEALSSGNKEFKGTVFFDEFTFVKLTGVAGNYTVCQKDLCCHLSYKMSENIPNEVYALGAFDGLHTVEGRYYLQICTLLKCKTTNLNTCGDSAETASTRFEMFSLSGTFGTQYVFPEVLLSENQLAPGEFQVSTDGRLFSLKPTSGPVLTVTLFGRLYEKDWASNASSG

Consider `NC(=O)c1ccc(CNc2ncc(C(=O)c3cccc(C(F)(F)F)c3)cn2)cn1` [Example 69, 5-[({5-[3-(trifluoromethyl)benzoyl]pyrimidin-2-yl}amino)methyl] pyridine-2-carboxamide], for which the IC50 in test [1] turned out to be 29.4 nM; in test [2], 46.8 nM.
In the same order, the values of `NC(=O)c1ccc(CNc2ncc(C(=O)c3ccc(F)c(C(F)(F)F)c3)cn2)cn1` [Example 70, 5-[({5-[4-fluoro-3-(trifluoromethyl)benzoyl]pyrimidin-2-yl}amino)methyl] pyridine-2-carboxamide] are 140 nM and 77.8 nM.
In the same order, the values of `N#Cc1ccc(C(=O)c2cnc(NCc3ccc(F)cc3)nc2)cc1` [Example 78, 4-({2-[(4-fluorobenzyl)amino]pyrimidin-5-yl}carbonyl) benzonitrile] are above 20000 nM and 687 nM.
For `COc1ccc(CNc2ncc(C(=O)c3ccc(C#N)cc3)cn2)cc1` [Example 79, 4-({2-[(4-methoxybenzyl)amino]pyrimidin-5-yl}carbonyl) benzonitrile], the IC50 in test [1] was 15100 nM; in test [2], 348 nM.
In the same order, the values of `O=C(c1cnc(NCc2ccccn2)nc1)c1ccc(F)c(C(F)(F)F)c1` [Example 80, [4-fluoro-3-(trifluoromethyl)phenyl]{2-[(pyridin-2-ylmethyl)amino]pyrimidin-5-yl}methanone] are 384 nM and 30.1 nM.
In the same order, the values of `O=C(c1cnc(NCc2cccnc2)nc1)c1ccc(F)c(C(F)(F)F)c1` [Example 81, [4-fluoro-3-(trifluoromethyl)phenyl]{2-[(pyridin-3-ylmethyl)amino]pyrimidin-5-yl}methanone] are 3.4 nM and above 16.9 nM.
In the same order, the values of `O=C(c1cnc(NCc2ccncc2)nc1)c1ccc(F)c(C(F)(F)F)c1` [Example 82, [4-fluoro-3-(trifluoromethyl)phenyl]{2-[(pyridin-4-ylmethyl)amino]pyrimidin-5-yl}methanone] are 111 nM and 55.5 nM.
Take `O=C(c1cnc(NCc2ccccc2)nc1)c1ccc(F)c(C(F)(F)F)c1` [Example 83, [2-(benzylamino)pyrimidin-5-yl][4-fluoro-3-(trifluoromethyl)phenyl]methanone]: the IC50 in test [1] was 1050 nM; in test [2] it was 84.4 nM.
In the same order, the values of `N#Cc1ccc(CNc2ncc(C(=O)c3ccc(F)c(C(F)(F)F)c3)cn2)cc1` [Example 84, 4-[({5-[4-fluoro-3-(trifluoromethyl)benzoyl]pyrimidin-2-yl}amino)methyl] benzonitrile] are 503 nM and 111 nM.
In the same order, the values of `O=C(c1cnc(NCc2ccc(F)cc2)nc1)c1ccc(F)c(C(F)(F)F)c1` [Example 85, {2-[(4-fluorobenzyl)amino]pyrimidin-5-yl}[4-fluoro-3-(trifluoromethyl)phenyl]methanone] are 1130 nM and 52.8 nM.
`O=C(c1cccc(Cl)c1)c1ccc(NCc2ccccc2)nn1` [Example 86, [6-(benzylamino)pyridazin-3-yl](3-chlorophenyl) methanone]: the IC50 stood at 14700 nM in test [1] and 758 nM in test [2].
Taken in the same sequence, the figures for `COc1ccc(CNc2ccc(C(=O)c3cccc(C(F)(F)F)c3)nn2)cc1` [Example 88, {6-[(4-methoxybenzyl)amino]pyridazin-3-yl}[3-(trifluoromethyl)phenyl]methanone] were 18600 nM and 9.3 nM.
As for `O=C(O)c1ccc(CNc2ncc(C(=O)c3ccc(F)c(C(F)(F)F)c3)cn2)cc1` [Example 89, 4-[({5-[4-fluoro-3-(trifluoromethyl)benzoyl]pyrimidin-2-yl}amino)methyl] benzoic acid], the IC50 in test [1] is 1000 nM; in test [2] it was 615 nM.
For the compound `O=C(c1cccc(C(F)(F)F)c1)c1ccc(NCc2ccccc2)nn1` [Example 90, [6-(benzylamino)pyridazin-3-yl][3-(trifluoromethyl)phenyl]methanone], the IC50 in test [1] was determined as 7430 nM; in test [2], 86.4 nM.
For `O=C(c1cccc(C(F)(F)F)c1)c1ccc(NCc2ccc(F)cc2F)nn1` [Example 92, {6-[(2,4-difluorobenzyl)amino]pyridazin-3-yl}[3-(trifluoromethyl)phenyl]methanone], the figures for the IC50 in test [1] and in test [2] were above 20000 nM and 566 nM, respectively.
In the same order, the values of `O=C(c1cnc(NCc2ccccc2)nc1)c1cc(F)cc(C(F)(F)F)c1` [Example 93, [2-(benzylamino)pyrimidin-5-yl][3-fluoro-5-(trifluoromethyl)phenyl]methanone] are 2150 nM and 154 nM.
Take `N#Cc1ccc(CNc2ncc(C(=O)c3cc(F)cc(C(F)(F)F)c3)cn2)cc1` [Example 94, 4-[({5-[3-fluoro-5-(trifluoromethyl)benzoyl]pyrimidin-2-yl}amino)methyl] benzonitrile]: the half-maximal inhibitory concentration (IC50) was found to be 2200 nM in test [1] and 987 nM in test [2].
Taken in the same sequence, the figures for `CS(=O)(=O)c1cccc(C(=O)c2cnc(NCc3ccc(F)cc3)nc2)c1` [Example 96, {2-[(4-fluorobenzyl)amino]pyrimidin-5-yl}[3-(methylsulfonyl)phenyl]methanone] were 14.2 nM and 415 nM.
Taken in the same sequence, the figures for `O=C(c1cnc(NCc2ccccc2)nc1)c1ccc2c(c1)OCCO2` [Example 97, [2-(benzylamino)pyrimidin-5-yl](2,3-dihydro-1,4-benzodioxin-6-yl)methanone] were 4850 nM and 873 nM.
Turning to `O=C(c1ccccc1)c1cnc(NCc2ccccc2)nc1` [Example 99, [2-(benzylamino)pyrimidin-5-yl](phenyl) methanone], the 50% inhibitory concentration (IC50) in test [1] was found to be 1680 nM; in test [2], 537 nM.
Taken in the same sequence, the figures for `O=C(c1ccccc1)c1cnc(NCc2ccccc2F)nc1` [Example 101, {2-[(2-fluorobenzyl)amino]pyrimidin-5-yl}(phenyl) methanone] were 804 nM and 150 nM.
Turning to `NC(=O)c1ccc(CNc2ncc(C(=O)c3ccccc3)cn2)cn1` [Example 107, 5-{[(5-benzoylpyrimidin-2-yl)amino]methyl} pyridine-2-carboxamide], the results for the IC50 in test [1] and in test [2] were 906 nM and 751 nM, respectively.
In the same order, the values of `O=C(c1cnc(NCc2ccc(F)cc2)nc1)c1cc(F)cc(C(F)(F)F)c1` [Example 127, {2-[(4-fluorobenzyl)amino]pyrimidin-5-yl}[3-fluoro-5-(trifluoromethyl)phenyl]methanone] are 3950 nM and 36.2 nM.
Taken in the same sequence, the figures for `O=C(c1cnc(OCc2ccccc2)nc1)c1cccc(C(F)(F)F)c1` [Example 155, [2-(benzyloxy)pyrimidin-5-yl][3-(trifluoromethyl)phenyl]methanone] were above 20000 nM and above 1110 nM.
For the compound `O=C(c1cnc(OCc2ccc(F)cc2F)nc1)c1cccc(C(F)(F)F)c1` [Example 156, {2-[(2,4-difluorobenzyl)oxy]pyrimidin-5-yl}[3-(trifluoromethyl)phenyl]methanone], the half-inhibitory concentration (IC50) is above 20000 nM in test [1] and above 1130 nM in test [2].
`CCN1CCCC1CNc1ncc(C(=O)c2cccc(C(F)(F)F)c2)cn1` (stereo not shown) [Example 165, (2-{[(1-ethylpyrrolidin-2-yl)methyl]amino}pyrimidin-5-yl)[3-(trifluoromethyl)phenyl]methanone]: the IC50 in test [1] was determined as 11900 nM; in test [2] it was 6900 nM.
